Entries after “also recorded” stand apart in the source; their conditions may differ.
Tests used:
5-HTRs = conditions: read-out: affinities at almost all 5-HTRs; cited from earlier work
5-HT1BRs = 5-HT1BRs (Homo sapiens, UniProt P28222); conditions: cited from earlier work
male C57BI/6J mice [1] = experiment: sucrose preference test (SPT) after chronic multimodal stress (CMMS); type: in vivo; conditions: stress-susceptible CMMS mice; ketanserin 2 mg/kg alone (ketanserin-vehicle); vs values after CMMS
male C57BI/6J mice [2] = experiment: female urine sniff test (FUST) after chronic multimodal stress; type: in vivo; conditions: stress-susceptible CMMS mice; ketanserin 2 mg/kg alone; vs values after CMMS
male C57BI/6J mice [3] = experiment: locomotion (video, Any-maze) after injection; type: in vivo; conditions: ketanserin 2 mg/kg pretreatment, recorded 90 minutes after second injection, with or without psilocybin
5-HT2Rs = conditions: cited from earlier work

5-HT1BRs, sequence (P28222 whole entry): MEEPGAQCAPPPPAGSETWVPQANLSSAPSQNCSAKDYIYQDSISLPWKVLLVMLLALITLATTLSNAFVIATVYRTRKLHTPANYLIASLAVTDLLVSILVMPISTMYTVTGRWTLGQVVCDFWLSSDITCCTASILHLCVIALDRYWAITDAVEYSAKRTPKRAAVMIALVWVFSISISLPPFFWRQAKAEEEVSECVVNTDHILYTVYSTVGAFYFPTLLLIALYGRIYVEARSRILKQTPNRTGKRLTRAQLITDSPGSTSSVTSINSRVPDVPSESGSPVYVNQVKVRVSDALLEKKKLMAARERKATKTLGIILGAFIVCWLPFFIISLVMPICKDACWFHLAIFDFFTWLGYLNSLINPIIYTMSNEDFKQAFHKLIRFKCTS

Structure (SMILES) | Ki (5-HTRs) [nM] | affinity for 5-HT1BRs (5-HT1BRs) | sucrose preference (SP) (male C57BI/6J mice [1]) | preference for female urine (male C57BI/6J mice [2]) | time mobile / mobility (male C57BI/6J mice [3]) | total distance travelled (male C57BI/6J mice [3]) | time mobile / mobility (male C57BI/6J mice [3]; listed as Ketanserin) | acute psilocybin-induced changes in processing of negative emotional stimuli (5-HT2Rs; healthy subjects) | psilocybin-induced self-reported perceptual distortions (5-HT2Rs; humans, ketanserin block of 5-HT2Rs)
CN(C)CCc1c[nH]c2cccc(O)c12 [Psilocin] | 3 to 500 | high affinity |  |  |  |  |  |  | 
O=C(c1ccc(F)cc1)C1CCN(CCn2c(=O)[nH]c3ccccc3c2=O)CC1 [ketanserin, Ketanserin] |  |  | no significant effect on either behavior | nor ketanserin alone (p=0.072; n=4) had a significant effect; also recorded: no significant effect on either behavior | significant effect of ketanserin | main effect of ketanserin | significant increase in mobility | prevented | significantly attenuates self-reported perceptual distortions; also recorded: attenuates psilocybin-induced perceptual alterations

From patent US20230000885A1, “Methods of Treating Psychological and Brain Disorders” (University of Maryland, Baltimore, priority 2019, published 2023)
